“Also recorded” adds a separate entry of the source. Where a SMILES comes first, the peptide text is derived from it. The star is where a group is joined. Cbz = O=C(OCc1ccccc1)*; CH2F = FC*
What was measured:
DR4-induced apoptosis = assay: Cell death assay: DR4-induced apoptosis in cells transiently transfected with a DR4 expressing construct, with death protease inhibitors; assay type: cell-based, human; details: FIG. 5C
[1] = tested on: DR4-induced apoptosis in MCF7 human breast carcinoma cells and 293 human embryonic kidney cells; assay: DR4-induced apoptosis cell death assay (transient transfection, X-Gal staining); assay type: cell-based; details: z-VAD-fmk added at 10 μM, 5 hrs after transfection; cells stained 32 hours following transfection
Procedure: Overexpression of Fas/APO-1 and TNFR-1 in mammalian cells mimics receptor activation (M. Muzio, et al., Cell 85, 817-827 (1996); M. P. Boldin, et al, Cell 85, 803-815 (1996)). Thus, this system was utilized to study the functional role of DR4. Transient expression of DR4 in MCF7 human breast carcinoma cells and 293 human embryonic kidney cells induced rapid apoptosis.
Cell death assays are performed essentially as previously described (A. M. Chinnaiyan, et al., Cell 81, 505-12 (1995); M. P. Boldin, et al, J Biol Chem 270, 7795-8 (1995); F. C. Kischkel, et al., EMBO 14, 5579-5588 (1995); A. M. Chinnaiyan, et al., J Biol Chem 271, 4961-4965 (1996)). Briefly, MCF-7 human breast carcinoma clonal cell lines stably transfected with either vector alone or a CrmA expression construct (M. Tewari, et al., J Biol Chem 270, 3255-60 (1995)), are transiently transfected with pCMV-DR4-galactosidase (or pCMV-DR4-galactosidase (lacking the death domain)) in the presence of a ten-fold excess of pcDNA3 expression constructs encoding the indicated proteins using lipofectamine (GIBCO-BRL). 293 cells are likewise transfected using the CaPO4 method. The ICE family inhibitor z-VAD-fmk (Enzyme Systems Products, Dublin, Calif.) is added to the cells at a concentration of 10 μM, 5 hrs after transfection. […]

[2] = tested on: TRAIL-induced apoptosis in MCF7 cells; assay: Blocking of TRAIL-induced apoptosis in MCF7 cells by receptor-Fc fusions; assay type: cell-based, human; details: FIG. 6A

Row | Compound | Blocking of DR4-induced apoptosis (DR4-induced apoptosis) | Blocking of DR4-induced apoptosis (DR4-induced apoptosis; listed as z-VAD-fink) | DR4-induced apoptosis [1] | Blocking of the ability of TRAIL to induce apoptosis [2]
1 | COC(=O)C[C@H](NC(=O)[C@H](C)NC(=O)[C@@H](NC(=O)OCc1ccccc1)C(C)C)C(=O)CF [z-VAD-fmk] (Cbz-Val-Ala-Asp(OMe)-CH2F) | inhibit the apoptotic action of DR4; also recorded: efficiently blocked | blocked | blocked | 
2 | CD95-Fc: extracellular domain of CD-95 expressed as Fc fusion |  |  |  | not influenced

— patent US8329179B2, “Death domain containing receptor 4 antibodies and methods” (Human Genome Sciences, Inc., priority 1997, dated 2012)
